Patent US20130029970A1 (priority 2009, published 2013)
Like-named read-outs stand apart in the source and are kept apart here.

Assays:
[1] = target: T1, human CB2 (hCB2) (Homo sapiens, UniProt P34972); test: 35S GTPγS binding assay, hCB2 agonist; type: biochemical
T1 construct: (cDNA clone) CNR0200000
Procedure, shortened: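 Membranes (5 μg) from cells transfected with hCB2 cDNA in pcDNA3.1+ incubated with SPA beads, 0.1 nM [35S]GTPγS and 20 uM GDP in 50 mM HEPES pH 7.4, 100 mM NaCl, 5 mM MgCl2, 0.001% saponin, ± test compound. Incubation 90 min at room temperature; bound label read by scintillation counting.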

[2] = target: T2, human CB1 receptors (Homo sapiens, UniProt P21554); test: cAMP assay in HEK-293 cells, hCB1 agonist; type: cell-based
T2 construct: (cDNA clone) CNR01L000
T2 sequence (P21554 whole entry): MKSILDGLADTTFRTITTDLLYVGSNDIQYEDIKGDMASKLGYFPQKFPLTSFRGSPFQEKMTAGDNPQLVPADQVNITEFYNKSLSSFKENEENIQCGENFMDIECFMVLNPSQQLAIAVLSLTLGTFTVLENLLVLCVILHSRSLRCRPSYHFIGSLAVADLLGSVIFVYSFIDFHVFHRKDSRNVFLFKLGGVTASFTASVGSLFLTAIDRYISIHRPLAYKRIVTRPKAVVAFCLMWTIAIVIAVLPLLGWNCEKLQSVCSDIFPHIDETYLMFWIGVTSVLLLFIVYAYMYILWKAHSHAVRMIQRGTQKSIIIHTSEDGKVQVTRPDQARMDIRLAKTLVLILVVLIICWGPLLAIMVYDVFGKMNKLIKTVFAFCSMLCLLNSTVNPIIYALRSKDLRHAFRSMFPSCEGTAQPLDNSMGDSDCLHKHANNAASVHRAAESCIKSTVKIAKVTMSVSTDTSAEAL
Procedure, shortened: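 Stable hCB1 HEK-293 cells suspended in HBSS with 10 mM HEPES and 0.1% fatty acid-free BSA, incubated 30 min at 37° C. with compound plus forskolin (90 uM in the 3× compound solution). Lysed cAMP measured by enzyme-fragment kit; EC50 = 50% inhibition of forskolin-stimulated cAMP (forskolin maximum = 100%), sigmoidal fit.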

[3] = target: T3, recombinant human cannabinoid receptor CB2 (Homo sapiens, UniProt P34972); test: Cannabinoid receptor radioligand binding assay, [3H]-CP 55,940 displacement, hCB2
T3 construct: (cDNA clone) CNR0200000
T3 sequence (P34972 whole entry): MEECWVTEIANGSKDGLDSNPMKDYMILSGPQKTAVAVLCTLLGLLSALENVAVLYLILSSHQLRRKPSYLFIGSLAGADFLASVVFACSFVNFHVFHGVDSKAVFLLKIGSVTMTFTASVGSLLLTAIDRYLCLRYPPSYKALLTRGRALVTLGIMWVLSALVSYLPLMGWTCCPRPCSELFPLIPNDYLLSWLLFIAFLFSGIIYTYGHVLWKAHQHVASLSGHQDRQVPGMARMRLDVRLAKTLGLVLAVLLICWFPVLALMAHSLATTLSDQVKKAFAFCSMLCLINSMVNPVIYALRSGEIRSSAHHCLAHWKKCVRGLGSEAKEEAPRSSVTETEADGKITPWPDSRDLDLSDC
Procedure, shortened: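 Membranes from hCB2-transfected cells, prepared by 1000×g then 40,000×g centrifugation, resuspended in 20 mM HEPES pH 7.4, 5 mM MgCl2, 1 mM EDTA, 10% sucrose.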

[4] = inhibition of forskolin-stimulated cAMP, HEK-293 cells, read-out: hCB1 EC50 (cAMP ag)
[5] = inhibition of forskolin-stimulated cAMP, HEK-293 cells

T1 sequence (P34972 whole entry): as above

Row | SMILES | EC50 [1] [nM] | EC50 [2] [nM] | IC50 [3] [nM] | EC50 [2, 4] [nM] | hCB1 EC50 (cAMP ag, nM) [2, 5] | EC50 ([1]; GTPγS agonist, HEK-293 membranes, read-out: hCB2 EC50 (GTPyS ag)) [nM]
1 | COc1ccc(C(=O)c2cc3cc(C)n(CCN4CCOCC4)c3s2)cc1 [Compound 36, (4-methoxyphenyl)(5-methyl-6-(2-morpholinoethyl)-6H-thieno[2,3-b]pyrrol-2-yl)methanone] | < 100 | 1000 to 10000 | < 100 |  |  | 
2 | Cc1cc2cc(C(=O)c3cccc(Cl)c3Cl)sc2n1S(=O)(=O)N(C)C [Compound 41, 2-(2,3-Dichlorobenzoyl)-N,N,5-trimethyl-6H-thieno[2,3-b]pyrrole-6-sulfonamide] | < 100 |  | < 100 | 1000 to 10000 |  | 
3 | Cc1cc2cc(C(=O)c3ccccc3N)sc2n1CCN1CCOCC1 [Compound 48, (2-Aminophenyl)(5-methyl-6-(2-morpholinoethyl)-6H-thieno[2,3-b]pyrrol-2-yl)methanone] | < 100 |  | < 100 | 1000 to 10000 |  | 
4 | COCCn1c(C)cc2cc(C(=O)c3ccc(OC)cc3)sc21 [Compound 49, (6-(2-Methoxyethyl)-5-methyl-6H-thieno[2,3-b]pyrrol-2-yl)(4-methoxyphenyl)methanone] | 100 to 1000 |  | 1000 to 10000 |  | NS (NS means “Not Significant,” which means less than 30% agonist activity when compared to the positive control.) | 
5 | COc1ccc(C(=O)c2cc3cc(C)n(CCN4CCOC4=O)c3s2)cc1 [Compound 50, 3-(2-(2-(4-Methoxybenzoyl)-5-methyl-6H-thieno[2,3-b]pyrrol-6-yl)ethyl)oxazolidin-2-one] | 1000 to 10000 |  | 1000 to 10000 |  | NS (NS means “Not Significant,” which means less than 30% agonist activity when compared to the positive control.) | 
6 | CCOc1ccc(C(=O)c2cc3cc(C)n(CCN4CCOCC4)c3s2)cc1 [Compound 55, (4-Ethoxyphenyl)(5-methyl-6-(2-morpholinoethyl)-6H-thieno[2,3-b]pyrrol-2-yl)methanone] | < 100 |  | 100 to 1000 | 1000 to 10000 |  | 
7 | Cc1cc2cc(C(=O)c3ccc(N(C)C)cc3)sc2n1CCN1CCOCC1 [Compound 59, (4-(Dimethylamino)phenyl)(5-methyl-6-(2-morpholinoethyl)-6H-thieno[2,3-b]pyrrol-2-yl)methanone] | 100 to 1000 |  | 1000 to 10000 |  | NS (NS means “Not Significant,” which means less than 30% agonist activity when compared to the positive control.) | 
8 | Cc1cc2cc(C(=O)c3ccc(F)cc3Cl)sc2n1CCN1CCOCC1 [Compound 64, (2-Chloro-4-fluorophenyl)(5-methyl-6-(2-morpholinoethyl)-6H-thieno[2,3-b]pyrrol-2-yl)methanone] | < 100 |  | < 100 | 100 to 1000 |  | 
9 | Cc1cc2cc(C(=O)c3ccc(OC(F)(F)F)cc3)sc2n1CCN1CCOCC1 [Compound 65, (5-Methyl-6-(2-morpholinoethyl)-6H-thieno[2,3-b]pyrrol-2-yl)(4-(trifluoromethoxy)phenyl)methanone] | 100 to 1000 |  | 100 to 1000 |  | NS (NS means “Not Significant,” which means less than 30% agonist activity when compared to the positive control.) | 
10 | COc1ccc(C(=O)c2cc3cc(C)n(CCN4CCOCC4)c3s2)c(F)c1 [Compound 68, (2-Fluoro-4-methoxyphenyl)(5-methyl-6-(2-morpholinoethyl)-6H-thieno[2,3-b]pyrrol-2-yl)methanone] | < 100 |  | < 100 | 1000 to 10000 |  | 
11 | COc1ccc(C(=O)c2cc3cc(C)n(CCNS(C)(=O)=O)c3s2)cc1 [Compound 71, N-(2-(2-(4-Methoxybenzoyl)-5-methyl-6H-thieno[2,3-b]pyrrol-6-yl)ethyl)methanesulfonamide] | 100 to 1000 |  | 1000 to 10000 |  | NS (NS means “Not Significant,” which means less than 30% agonist activity when compared to the positive control.) | 
12 | CCOC(=O)CCn1c(C)cc2cc(C(=O)c3ccc(OC)cc3)sc21 [Compound 72, Ethyl 3-(2-(4-methoxybenzoyl)-5-methyl-6H-thieno[2,3-b]pyrrol-6-yl)propanoate] | 100 to 1000 |  | 1000 to 10000 |  | NS (NS means “Not Significant,” which means less than 30% agonist activity when compared to the positive control.) | 
13 | COc1ccc(C(=O)c2cc3cc(C)n(CCCNC(=O)C(F)(F)F)c3s2)cc1 [Compound 76, 2,2,2-Trifluoro-N-(3-(2-(4-methoxybenzoyl)-5-methyl-6H-thieno[2,3-b]pyrrol-6-yl)propyl)acetamide] | 100 to 1000 |  | 100 to 1000 |  | NS (NS means “Not Significant,” which means less than 30% agonist activity when compared to the positive control.) | 
14 | COc1ccc(C(=O)c2cc3cc(C)n(CCC(C)(C)O)c3s2)cc1 [Compound 77, (6-(3-Hydroxy-3-methylbutyl)-5-methyl-6H-thieno[2,3-b]pyrrol-2-yl)(4-methoxyphenyl)methanone] | 100 to 1000 |  | 1000 to 10000 | 1000 to 10000 |  | 
15 | Cc1ccc(C(=O)c2cc3cc(C)n(CCN4CCOCC4)c3s2)c(F)c1 [Compound 80, (2-Fluoro-4-methylphenyl)(5-methyl-6-(2-morpholinoethyl)-6H-thieno[2,3-b]pyrrol-2-yl)methanone] | < 100 |  | 100 to 1000 |  | NS (NS means “Not Significant,” which means less than 30% agonist activity when compared to the positive control.) | 
16 | COc1ccc(C(=O)c2cc3cc(C)n(CCN4CCCC4)c3s2)cc1 [Compound 83, (4-Methoxyphenyl)(5-methyl-6-(2-(pyrrolidin-1-yl)ethyl)-6H-thieno[2,3-b]pyrrol-2-yl)methanone] | 100 to 1000 |  | 100 to 1000 | 1000 to 10000 |  | 
17 | Cc1ccc(C(=O)c2cc3cc(C)n(CCN4CCOCC4)c3s2)c(Cl)c1 [Compound 86, (2-Chloro-4-methylphenyl)(5-methyl-6-(2-morpholinoethyl)-6H-thieno[2,3-b]pyrrol-2-yl)methanone] | < 100 |  | < 100 | 1000 to 10000 |  | 
18 | COc1ccc(C(=O)c2cc3cc(C)n(CCN4CCOCC4)c3s2)c(C)c1 [Compound 88, (4-Methoxy-2-methylphenyl)(5-methyl-6-(2-morpholinoethyl)-6H-thieno[2,3-b]pyrrol-2-yl)methanone] | < 100 |  | < 100 | 100 to 1000 |  | 
19 | CCOc1ccc(C(=O)c2cc3cc(C)n(CCN4CCOCC4)c3s2)c(F)c1 [Compound 89, (4-Ethoxy-2-fluorophenyl)(5-methyl-6-(2-morpholinoethyl)-6H-thieno[2,3-b]pyrrol-2-yl)methanone] | < 100 |  | 100 to 1000 | 1000 to 10000 |  | 
20 | COc1ccc(C(=O)c2cc3cc(C)n(CCN4CCCCC4)c3s2)c(Cl)c1 [Compound 90, (2-Chloro-4-methoxyphenyl)(5-methyl-6-(2-(piperidin-1-yl)ethyl)-6H-thieno[2,3-b]pyrrol-2-yl)methanone] | < 100 |  | < 100 | 100 to 1000 |  | 
21 | COc1ccc(C(=O)c2cc3cc(C)n(CCN4CCCC4)c3s2)c(F)c1 [Compound 92, (2-Fluoro-4-methoxyphenyl)(5-methyl-6-(2-(pyrrolidin-1-yl)ethyl)-6H-thieno[2,3-b]pyrrol-2-yl)methanone] | < 100 |  | 100 to 1000 | 1000 to 10000 |  | 
22 | COc1ccc(C(=O)c2cc3cc(C)n(CCN4CCCC4)c3s2)c(Cl)c1 [Compound 93, (2-Chloro-4-methoxyphenyl)(5-methyl-6-(2-(pyrrolidin-1-yl)ethyl)-6H-thieno[2,3-b]pyrrol-2-yl)methanone] | < 100 |  | < 100 | 1000 to 10000 |  | 
23 | COc1ccc(C(=O)c2cc3cc(C)n(CCCNS(C)(=O)=O)c3s2)c(C)c1 [Compound 96, N-(3-(2-(4-Methoxy-2-methylbenzoyl)-5-methyl-6H-thieno[2,3-b]pyrrol-6-yl)propyl)methanesulfonamide] | < 100 |  | < 100 |  | NS (NS means “Not Significant,” which means less than 30% agonist activity when compared to the positive control.) | 
24 | COc1ccc(C(=O)c2cc3cc(C)n(CCN4CCCCC4)c3s2)c(F)c1 [Compound 98, (2-Fluoro-4-methoxyphenyl)(5-methyl-6-(2-(piperidin-1-yl)ethyl)-6H-thieno[2,3-b]pyrrol-2-yl)methanone] | < 100 |  | < 100 |  | NS (NS means “Not Significant,” which means less than 30% agonist activity when compared to the positive control.) | 
25 | COc1ccc(C(=O)c2cc3cc(C)n(CCN4CCCCC4)c3s2)c(O)c1 [Compound 99, (2-Hydroxy-4-methoxyphenyl)(5-methyl-6-(2-(piperidin-1-yl)ethyl)-6H-thieno[2,3-b]pyrrol-2-yl)methanone] | < 100 |  | 100 to 1000 |  | NS (NS means “Not Significant,” which means less than 30% agonist activity when compared to the positive control.) | 
26 | COc1ccc(C(O)c2cc3cc(C)n(CCN4CCOCC4)c3s2)cc1 (stereo not drawn) [Compound 100, (4-Methoxyphenyl)(5-methyl-6-(2-morpholinoethyl)-6H-thieno[2,3-b]pyrrol-2-yl)methanol] |  |  | 100 to 1000 |  | NS (NS means “Not Significant,” which means less than 30% agonist activity when compared to the positive control.) | < 100
